Results from patent US8492540B2, “1,2,4,-triazin-3,5-dione compounds suitable for treating disorders that respond to modulation of the dopamine D3 receptor” (Abbott GmbH & Co. KG, priority 2007, dated 2013).

Tests used:
[1] = molecular target: T1, human dopamine D3 receptors (Homo sapiens, UniProt P35462); experiment: Dopamine D3 receptor binding, [125I]-iodosulpride displacement; details: membranes of HEK-293 cells, 0.1 nM [125I]-iodosulpride
T1 construct: expressed in transfected cells; membranes)
T1 sequence (P35462 whole entry): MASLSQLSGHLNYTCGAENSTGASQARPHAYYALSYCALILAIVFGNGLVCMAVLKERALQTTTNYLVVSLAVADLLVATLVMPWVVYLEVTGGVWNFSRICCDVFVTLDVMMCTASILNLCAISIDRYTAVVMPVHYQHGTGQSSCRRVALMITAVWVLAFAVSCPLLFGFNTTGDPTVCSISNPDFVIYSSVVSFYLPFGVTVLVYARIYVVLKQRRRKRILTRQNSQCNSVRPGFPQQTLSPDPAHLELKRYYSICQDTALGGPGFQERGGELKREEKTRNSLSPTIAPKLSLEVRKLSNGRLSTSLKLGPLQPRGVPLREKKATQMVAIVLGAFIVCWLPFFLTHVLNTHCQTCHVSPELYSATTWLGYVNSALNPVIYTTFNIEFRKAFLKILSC
Procedure: (§1) Each as-say mixture was run in triplicate. • The incubation buffer contained 50 mM tris, 120 mM NaCl, 5 mM KCl, 2 mM CaCl2, 2 mM MgCl2 and 0.1% bovine serum albumin, 10 μM quinolone and 0.1% ascorbic acid (prepared fresh daily). […] Each assay mixture was run in triplicate. • The incubation buffer contained 50 mM tris, 120 mM NaCl, 5 mM KCl, 2 mM CaCl2, 2 mM MgCl2 and 0.1% bovine serum albumin. The buffer was adjusted to pH 7.4 with HCl. c) Measurement and Analysis: • After having been incubated at 25° C. for 60 minutes, the assay mixtures were filtered through a Whatman GF/B glass fiber filter under vacuum using a cell collecting device. The filters were transferred to scintillation viols using a filter transfer system. After 4 ml of Ultima Gold® (Packard) have been added, the samples were shaken for one hour and the radioactivity was then counted in a Beta-Counter (Packard, Tricarb 2000 or 2200CA).

[2] = molecular target: T2, human dopamine D2L receptors (long isoform) (Homo sapiens, UniProt P14416); experiment: Dopamine D2L receptor binding, [125I] iodospiperone displacement; details: ratio of Ki at human D2L to Ki at human D3, HEK-293 membranes
T2 construct: expressed in transfected cells; membranes)
T2 sequence (P14416 whole entry, canonical isoform): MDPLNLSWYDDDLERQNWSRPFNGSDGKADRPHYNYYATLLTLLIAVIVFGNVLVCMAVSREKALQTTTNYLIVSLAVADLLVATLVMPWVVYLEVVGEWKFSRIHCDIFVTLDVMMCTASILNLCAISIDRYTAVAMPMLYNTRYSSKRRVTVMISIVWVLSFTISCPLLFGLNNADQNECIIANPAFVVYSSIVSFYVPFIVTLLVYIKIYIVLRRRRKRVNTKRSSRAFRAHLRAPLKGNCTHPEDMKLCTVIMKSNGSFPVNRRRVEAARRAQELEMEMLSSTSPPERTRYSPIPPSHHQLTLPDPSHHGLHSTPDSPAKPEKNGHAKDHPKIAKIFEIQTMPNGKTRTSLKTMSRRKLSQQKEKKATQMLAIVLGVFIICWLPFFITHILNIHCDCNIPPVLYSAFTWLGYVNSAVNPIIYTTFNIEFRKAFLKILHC
Procedure: as §1

| Compound | Ki [1] | Selectivity vs. D2L, Ki(D2L)/Ki(D3) [2] |
| --- | --- | --- |
| CC(C)(C)c1nc(C(F)F)cc(N2CCN(CCCCn3ncc(=O)[nH]c3=O)CC2)n1.Cl [Example 2, 2-{4-[4-(2-tert-Butyl-6-difluoromethyl-pyrimidin-4-yl)-piperazin-1-yl]butyl}-2H-[1,2,4]triazine-3,5-dione hydrochloride] | < 10 nM | ++ (++>20) |
| CC(C)(C)c1nc(N2CCN(CCCCn3ncc(=O)[nH]c3=O)CC2)cc(C(F)(F)F)n1.Cl [Example 1, 2-{4-[4-(2-tert-Butyl-6-trifluoromethyl-pyrimidin-4-yl)-piperazin-1-yl]butyl}-2H-[1,2,4]triazine-3,5-dione hydrochloride] | < 10 nM | ++ (++>20) |
| CC(C)(C)c1cc(N2CCN(CCCCn3ncc(=O)[nH]c3=O)CC2)nc(C(C)(C)C)n1.O=C(O)C(F)(F)F [Example 4, 2-{4-[4-(2,6-Di-tert-butyl-pyrimidin-4-yl)-piperazin-1-yl]butyl}-2H-[1,2,4]triazine-3,5-dione trifluoroacetate] | < 10 nM | ++ (++>20) |

Now from value to molecule:

| Ki [1] | Selectivity vs. D2L, Ki(D2L)/Ki(D3) [2] | Compound |
| --- | --- | --- |
| < 10 nM | ++ (++>20) | CCCc1cc(N2CCN(CCCCn3nc(C)c(=O)[nH]c3=O)CC2)nc(C(C)(C)C)n1.Cl [Example 7, 2-{4-[4-(2-tert-Butyl-6-propyl-pyrimidin-4-yl)-piperazin-1-yl]butyl}-6-methyl-2H-[1,2,4]triazine-3,5-dione hydrochloride] |
| < 10 nM | +++ (+++>50) | CCCc1cc(N2CCN(CCCCn3ncc(=O)[nH]c3=O)CC2)nc(C(C)(C)C)n1 [Example 3, 2-{4-[4-(2-tert-Butyl-6-propyl-pyrimidin-4-yl)-piperazin-1-yl]butyl}-2H-[1,2,4]triazine-3,5-dione] |
| < 10 nM | ++ (++>20) | Cc1nn(CCCCN2CCN(c3cc(C(F)(F)F)nc(C(C)(C)C)n3)CC2)c(=O)[nH]c1=O.Cl [Example 6, 2-{4-[4-(2-tert-Butyl-6-trifluoromethyl-pyrimidin-4-yl)-piperazin-1-yl]butyl}-6-methyl-2H-[1,2,4]triazine-3,5-dione hydrochloride] |
| < 10 nM | ++ (++>20) | CC(C)(C)c1nc(C2CCC2)cc(N2CCN(CCCCn3ncc(=O)[nH]c3=O)CC2)n1 [Example 5, 2-{4-[4-(2-tert-Butyl-6-cyclobutyl-pyrimidin-4-yl)-piperazin-1-yl]butyl}-2H-[1,2,4]triazine-3,5-dione] |
